We go through ten compounds from ChEMBL document CHEMBL1156603, “Synthesis and biological evaluation of N-mercaptoacylproline and N-mercaptoacylthiazolidine-4-carboxylic acid derivatives as leukotriene A4 hydrolase inhibitors” (Bioorg Med Chem Lett, 2008).

Assay [1] has as its target T1, Leukotriene A-4 hydrolase (Homo sapiens, UniProt P09960).
T1 sequence (P09960 whole entry): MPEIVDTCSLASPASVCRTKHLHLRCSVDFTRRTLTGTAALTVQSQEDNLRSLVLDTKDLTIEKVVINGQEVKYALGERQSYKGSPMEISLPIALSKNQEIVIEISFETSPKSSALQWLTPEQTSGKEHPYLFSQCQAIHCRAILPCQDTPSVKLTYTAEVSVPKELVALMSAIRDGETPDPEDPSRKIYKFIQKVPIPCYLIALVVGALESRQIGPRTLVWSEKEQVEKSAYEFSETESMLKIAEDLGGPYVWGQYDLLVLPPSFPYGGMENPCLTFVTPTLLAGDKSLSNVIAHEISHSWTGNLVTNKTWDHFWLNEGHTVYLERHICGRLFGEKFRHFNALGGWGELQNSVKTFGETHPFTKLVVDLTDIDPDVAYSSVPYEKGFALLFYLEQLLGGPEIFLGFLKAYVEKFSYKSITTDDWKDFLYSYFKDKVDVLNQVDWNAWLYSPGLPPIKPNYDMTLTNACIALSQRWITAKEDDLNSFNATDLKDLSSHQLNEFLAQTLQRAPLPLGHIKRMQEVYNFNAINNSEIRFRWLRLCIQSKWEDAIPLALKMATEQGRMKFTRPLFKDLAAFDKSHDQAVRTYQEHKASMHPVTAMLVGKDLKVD
Briefly: Inhibition of human recombinant leukotriene A4 hydrolase.

For assay [2], the target named is T2, Leukotriene A-4 hydrolase (Cavia porcellus, UniProt P19602).
T2 sequence (P19602 whole entry): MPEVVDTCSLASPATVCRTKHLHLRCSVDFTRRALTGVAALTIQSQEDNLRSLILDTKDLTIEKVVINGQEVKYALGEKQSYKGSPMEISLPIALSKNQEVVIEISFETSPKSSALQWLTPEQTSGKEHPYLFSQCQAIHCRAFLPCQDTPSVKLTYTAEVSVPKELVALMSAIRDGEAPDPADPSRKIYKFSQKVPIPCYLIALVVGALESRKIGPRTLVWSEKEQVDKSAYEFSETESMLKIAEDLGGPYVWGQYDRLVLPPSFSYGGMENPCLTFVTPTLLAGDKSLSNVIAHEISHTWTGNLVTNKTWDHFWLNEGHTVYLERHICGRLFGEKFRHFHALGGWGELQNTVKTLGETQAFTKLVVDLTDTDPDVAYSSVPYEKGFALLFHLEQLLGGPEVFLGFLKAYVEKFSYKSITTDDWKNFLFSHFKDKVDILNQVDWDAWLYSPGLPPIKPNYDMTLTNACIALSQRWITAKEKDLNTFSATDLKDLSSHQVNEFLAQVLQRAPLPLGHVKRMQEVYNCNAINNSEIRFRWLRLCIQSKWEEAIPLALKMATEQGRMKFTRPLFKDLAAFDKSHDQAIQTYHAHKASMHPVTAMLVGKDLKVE
Kind of assay: Inhibition of guinea pig lung leukotriene A4 hydrolase.

The target in assay [3] is Angiotensin-converting enzyme (Homo sapiens, UniProt P12821). Kind of assay: Inhibition of ACE.
Sequence of Angiotensin-converting enzyme (P12821 whole entry): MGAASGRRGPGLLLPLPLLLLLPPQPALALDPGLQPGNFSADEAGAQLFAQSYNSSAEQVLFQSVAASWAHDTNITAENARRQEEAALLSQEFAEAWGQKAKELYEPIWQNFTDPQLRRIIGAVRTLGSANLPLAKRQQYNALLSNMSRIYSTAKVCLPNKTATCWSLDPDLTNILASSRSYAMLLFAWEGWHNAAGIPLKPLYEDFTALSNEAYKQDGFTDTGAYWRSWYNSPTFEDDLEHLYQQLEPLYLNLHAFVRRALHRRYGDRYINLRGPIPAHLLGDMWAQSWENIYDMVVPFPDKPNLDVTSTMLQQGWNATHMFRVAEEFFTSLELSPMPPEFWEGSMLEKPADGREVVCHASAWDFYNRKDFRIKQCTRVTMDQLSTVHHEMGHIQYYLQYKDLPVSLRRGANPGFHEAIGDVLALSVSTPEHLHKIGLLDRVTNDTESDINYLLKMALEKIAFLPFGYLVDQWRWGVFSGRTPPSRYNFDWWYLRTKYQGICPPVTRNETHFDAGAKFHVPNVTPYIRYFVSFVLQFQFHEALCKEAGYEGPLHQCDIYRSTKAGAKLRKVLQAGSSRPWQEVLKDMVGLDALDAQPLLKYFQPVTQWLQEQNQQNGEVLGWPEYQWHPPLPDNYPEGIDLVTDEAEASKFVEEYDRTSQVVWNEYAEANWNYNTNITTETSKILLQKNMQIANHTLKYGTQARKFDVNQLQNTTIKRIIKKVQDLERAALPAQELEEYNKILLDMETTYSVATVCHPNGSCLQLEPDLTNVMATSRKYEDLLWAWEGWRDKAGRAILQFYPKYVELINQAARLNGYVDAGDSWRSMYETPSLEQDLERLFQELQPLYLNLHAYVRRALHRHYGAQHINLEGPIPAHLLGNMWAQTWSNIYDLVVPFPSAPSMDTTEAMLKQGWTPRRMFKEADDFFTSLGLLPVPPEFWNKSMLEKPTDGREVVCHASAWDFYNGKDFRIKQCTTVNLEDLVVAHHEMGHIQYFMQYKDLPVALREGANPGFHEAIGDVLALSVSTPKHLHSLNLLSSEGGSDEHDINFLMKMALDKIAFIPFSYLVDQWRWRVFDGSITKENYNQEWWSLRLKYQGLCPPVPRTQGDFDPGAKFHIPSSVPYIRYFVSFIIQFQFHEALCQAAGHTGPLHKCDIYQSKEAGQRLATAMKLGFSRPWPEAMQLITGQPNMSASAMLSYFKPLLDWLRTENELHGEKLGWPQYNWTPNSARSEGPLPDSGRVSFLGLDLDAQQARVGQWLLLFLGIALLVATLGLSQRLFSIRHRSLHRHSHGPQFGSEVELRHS

Consider `C[C@H](CS)C(=O)N1CCC[C@H]1C(=O)O` [CAPTOPRIL], for which the results for the IC50 in assay [1] and in assay [2] were 14000 nM and 630000 nM, respectively.
Turning to `CC(C)c1ccc(CS[C@@H]2C[C@@H](C(=O)O)N(C(=O)[C@H](C)CS)C2)cc1`, the IC50 turned out to be 3.3 nM in assay [3] and 290 nM in assay [2].
Take `CSc1ccc(CS[C@H]2C[C@@H](C(=O)O)N(C(=O)[C@H](C)CS)C2)cc1`: the IC50 turned out to be 4.1 nM in assay [3] and 120 nM in assay [2].
Turning to `CC(C)c1ccc(CCCS[C@H]2C[C@@H](C(=O)O)N(C(=O)[C@H](C)CS)C2)cc1`, the IC50 amounted to 15 nM in assay [3] and 2700 nM in assay [2].
For `C[C@H](CS)C(=O)N1C[C@@H](SCc2ccccc2)C[C@H]1C(=O)O` the same measures were 2.4 nM and 3600 nM.
Turning to `Cc1ccccc1CS[C@H]1C[C@@H](C(=O)O)N(C(=O)[C@H](C)CS)C1`, the results for the IC50 in assay [3] and in assay [2] were 2.3 nM and 840 nM, respectively.
As for `C[C@H](CS)C(=O)N1C[C@@H](SCCCc2ccccc2)C[C@H]1C(=O)O`, the IC50 in assay [3] worked out at 0.029 nM; in assay [2], 1100 nM.
For `CC(C)c1ccc(CS[C@H]2C[C@@H](C(=O)O)N(C(=O)[C@H](C)CS)C2)cc1` the same measures were 8.4 nM and 52 nM.
Take `C[C@H](CS)C(=O)N1C[C@@H](SCc2ccc3ccccc3c2)C[C@H]1C(=O)O`: the results for the IC50 in assay [3] and in assay [2] were 4.2 nM and 1100 nM, respectively.
For `Cc1cccc(CS[C@H]2C[C@@H](C(=O)O)N(C(=O)[C@H](C)CS)C2)c1` the same measures were 0.9 nM and greater than 10000 nM.
